# Test results from ChEMBL document CHEMBL1201862, “PubChem BioAssay data set” (2004).
#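 Exposure lasted 48 hours, with cells grown in 96-well plates and compounds tested at five concentrations. The concentration for 50% growth inhibition is given as GI50.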 Calls of active or inactive are those of the source. Cut-off read from the data, not from the text of the source: active = GI50 up to about 1.1 µM and inactive = higher.
# Columns and labels:
# Experiment in all cases: NCI-60 cell line screen, 48 h
# HL-60 = test system: HL-60
# KM12 = test system: KM12
# SN12C = test system: SN12C
# IGROV-1 = test system: IGROV-1
# UACC-257 = test system: UACC-257
# OVCAR-5 = test system: OVCAR-5
# HCT-15 = test system: HCT-15
# HT-29 = test system: HT-29
# SR = test system: SR
# A498 = test system: A498
# ACHN = test system: ACHN
# HCT-116 = test system: HCT-116
# LOX IMVI = test system: LOX IMVI
# OVCAR-4 = test system: OVCAR-4
# PC-3 = test system: PC-3
# SW-620 = test system: SW-620
# EKVX = test system: EKVX
# A549 = test system: A549
# NCI-H23 = test system: NCI-H23
# BT-549 = test system: BT-549
# K562 = test system: K562
# SK-MEL-28 = test system: SK-MEL-28
# M14 = test system: M14
# Hs-578T = test system: Hs-578T
# SF-539 = test system: SF-539
# DU-145 = test system: DU-145
# MDA-MB-435 = test system: MDA-MB-435
# MDA-MB-231 = test system: MDA-MB-231
# MDA-N = test system: MDA-N
# NCI-H226 = test system: NCI-H226
# COLO 205 = test system: COLO 205
# HOP-92 = test system: HOP-92
# RXF 393 = test system: RXF 393
# 786-0 = test system: 786-0
# NCI-H522 = test system: NCI-H522
# OVCAR-3 = test system: OVCAR-3
# SK-MEL-2 = test system: SK-MEL-2
# SNB-75 = test system: SNB-75
# NCI-H460 = test system: NCI-H460
# T47D = test system: T47D
# CCRF-CEM = test system: CCRF-CEM
# Malme-3M = test system: Malme-3M
# UO-31 = test system: UO-31
# MCF7 = test system: MCF7
# TK-10 = test system: TK-10
# U-251 = test system: U-251
# SK-OV-3 = test system: SK-OV-3
# OVCAR-8 = test system: OVCAR-8
# HOP-62 = test system: HOP-62
# SK-MEL-5 = test system: SK-MEL-5
# MOLT-4 = test system: MOLT-4
# SF-295 = test system: SF-295
# RPMI-8226 = test system: RPMI-8226
# CAKI-1 = test system: CAKI-1
# HCC 2998 = test system: HCC 2998
# SF-268 = test system: SF-268
# NCI/ADR-RES = test system: NCI/ADR-RES
# UACC-62 = test system: UACC-62
# SNB-19 = test system: SNB-19
compound,measurement,setting,value
CCOC(=O)c1ccc(NC(=O)Oc2ccc3c(C)cc(=O)oc3c2)cc1,GI50,HL-60,30.4 µM (inactive)
same,GI50,KM12,20.9 µM (inactive)
same,GI50,SN12C,33.1 µM (inactive)
same,GI50,IGROV-1,38.5 µM (inactive)
same,GI50,UACC-257,43.2 µM (inactive)
same,GI50,OVCAR-5,23.1 µM (inactive)
same,GI50,HCT-15,33.7 µM
same,GI50,HT-29,32.7 µM (inactive)
same,GI50,SR,24.2 µM (inactive)
same,GI50,A498,> 100 µM (inactive)
same,GI50,ACHN,41.4 µM (inactive)
same,GI50,HCT-116,28.2 µM (inactive)
same,GI50,LOX IMVI,34.5 µM (inactive)
same,GI50,OVCAR-4,50.1 µM (inactive)
same,GI50,PC-3,38.4 µM (inactive)
same,GI50,SW-620,36.2 µM (inactive)
same,GI50,EKVX,42.9 µM (inactive)
same,GI50,A549,43.7 µM (inactive)
same,GI50,NCI-H23,32.4 µM (inactive)
same,GI50,BT-549,17.2 µM (inactive)
same,GI50,K562,24.3 µM (inactive)
same,GI50,SK-MEL-28,34.9 µM (inactive)
same,GI50,M14,28.5 µM (inactive)
same,GI50,Hs-578T,29.6 µM (inactive)
same,GI50,SF-539,> 100 µM (inactive)
same,GI50,DU-145,37.2 µM (inactive)
same,GI50,MDA-MB-435,35.6 µM (inactive)
same,GI50,MDA-MB-231,30.3 µM (inactive)
same,GI50,MDA-N,32.1 µM (inactive)
same,GI50,NCI-H226,32.7 µM (inactive)
same,GI50,COLO 205,34.2 µM (inactive)
same,GI50,HOP-92,23.7 µM (inactive)
same,GI50,RXF 393,58.6 µM (inactive)
same,GI50,786-0,45.6 µM (inactive)
same,GI50,NCI-H522,18.7 µM (inactive)
same,GI50,OVCAR-3,32.7 µM (inactive)
same,GI50,SK-MEL-2,23 µM (inactive)
same,GI50,SNB-75,32 µM (inactive)
same,GI50,NCI-H460,29.6 µM (inactive)
same,GI50,T47D,22.2 µM (inactive)
same,GI50,CCRF-CEM,22.6 µM (inactive)
same,GI50,Malme-3M,42.6 µM (inactive)
same,GI50,UO-31,33.1 µM (inactive)
same,GI50,MCF7,30.8 µM (inactive)
same,GI50,TK-10,> 100 µM (inactive)
same,GI50,U-251,32.9 µM (inactive)
same,GI50,SK-OV-3,29.6 µM (inactive)
same,GI50,OVCAR-8,35.5 µM (inactive)
same,GI50,HOP-62,31.6 µM (inactive)
same,GI50,SK-MEL-5,14.7 µM (inactive)
same,GI50,MOLT-4,22.5 µM (inactive)
same,GI50,SF-295,30.1 µM (inactive)
same,GI50,RPMI-8226,30.3 µM (inactive)
same,GI50,CAKI-1,36.1 µM (inactive)
same,GI50,HCC 2998,23.7 µM (inactive)
same,GI50,SF-268,37 µM (inactive)
same,GI50,NCI/ADR-RES,37 µM (inactive)
same,GI50,UACC-62,31.8 µM (inactive)
same,GI50,SNB-19,29.7 µM (inactive)
